Laboratory results: US7875422B2, “Viral drug susceptibility testing” (Cavidi AB, priority 2001, dated 2011)
pIC50: −log10 of the molar value. Where two headings read alike, the source gives them in different places.

Assays:
[1] = tested on: HIV 1 virus with the corresponding RT modification; parameters: key: S = sensitive; L = Low level resistance (2–10 times increase in inhibitory dose); I = Intermediate resistance (10–100 times increase); H = High level resistance (>100 times increase); conditions: phenotype data from literature, cited from earlier work
[2] = target: T1, recombinant HIV 1 RT wild type (Human immunodeficiency virus type 1 group M subtype B, UniProt P04585); assay: Influence of the amount of RT used in the drug susceptibility tests (AZT-TP); type: biochemical
T1 construct: This variation was maximal for wild type RT; made in house

[3] = tested on: HIV RT recovered from patient plasma; assay: Susceptibility to AZT-TP and d4T-TP using plasma derived RTs (Chain-termination reaction mixture); conditions: compared to wild type control RT
Method: (§2) • 1) Label the 4.5 ml plastic tubes to be used. Place them in a Nalgene box. Add 1 ml of sample (e.g. EDTA plasma from HIV infected individuals) to each labelled tube. Add 100 μl of a 66 mM solution of 5,5′-dithiobis-(2-nitrobenzoic acid) in buffered water, vortex and incubate the samples for one hour at room temperature.
(§3) The activity of the free plasma enzymes is destroyed during this procedure while the enzymes contained within the virions remain intact. The virions can then be purified from 5,5′-dithiobis-(2-nitrobenzoic acid), enzyme activity blocking antibodies and other substances that may interfere with quantification of viral RT by several separation procedures. The protocol below is based on the use of Fractogel® EMD TMAE Hicap gel. • 2) Suspend the separation gel carefully and transfer 1500 μl gel slurry to each sample pretreatment tube. • 3) Incubate the samples with the gel slurry for 90 minutes at room temperature with the tubes lying down horizontally on an orbital shaker. • 4) Label the desired amount of 10 ml plastic mini columns to identify the samples being analyzed. Mount the columns in a column washing device i.e. a Supelco Visiprep solid phase extraction vacuum manifold. Transfer the contents in the binding tubes to their corresponding columns. Before transfer vortex the tube briefly to evenly distribute the gel. • 5) When all the columns are filled, apply the vacuum and suck the gels dry. Turn off the vacuum and start the washing by filling each column with 9 ml buffer A. When all columns have been filled, apply the vacuum and suck the gels dry. • 6) Repeat step 5 three more times, giving a total of four washes. Suck the gels dry after each wash. After sucking the gels dry after the fourth wash, turn off the vacuum and proceed to step 7. • The washing step removes unbound RT blocking antibodies and 5,5′-dithiobis-(2-nitrobenzoic acid) from the system. • 7) Add to all dry gels 9 ml of conditioning buffer (B). After one minute apply vacuum and suck the gels dry. • 8) Repeat step 7. Before turning off the vacuum check that all conditioning buffer (B) has been removed from all gels. • 9) Lift off the upper part of the column wash device. Mount the tube holder with the labelled tubes into a clean container. Refit the upper part of the device. Control that the small tubings from each column go down in their corresponding tubes. • 10) Add 600 μl lysis buffer (C) to each column. Let the buffer stand in the column for five minutes. Then apply the vacuum slowly and suck the gels dry. This will in each tube give approximately 600 μl of virus lysate from the connected gel.
(§4) The RT activity recovered in the lysates from step 10 are essentially free from RT blocking antibodies, drugs and cellular polymerase activity, and can be quantified with a sensitive RT activity assay, i.e. the Cavidi HS-kit Lenti RT, which is based on the method described by Ekstrand et al [7]. 25 μl lysate obtained according to the current protocol is sufficient for determination of the RT activity in the sample. The Remaining 575 μl sample should be frozen at −70° C. or below for later use in the drug sensitivity test.

[4] = target: HIV RT recovered from patient plasma (UniProt P04585, K690N/V695H, species not given); assay: as above; conditions: plasma RT of patient code 2098; 5 fg/well
[5] = target: HIV RT recovered from patient plasma (UniProt P04585, T656N/L687I/K690N, species not given); assay: as above; conditions: plasma RT of patient code 622; 5 fg/well
[6] = target: HIV RT recovered from patient plasma (UniProt P04585, M628L/E631D/D654N/A685G/V705I/Y768C/L797W/T802Y, species not given); assay: as above; conditions: plasma RT of patient code 656 (resensitising 181C); 5 fg/well
[7] = target: T2, HIV RT recovered from patient plasma (Human immunodeficiency virus type 1, UniProt P03366); assay: as above; conditions: 5 fg/well
Method: as §2, §3, §4

[8] = target: HIV RT recovered from patient plasma (UniProt P04585, K657R/L797S, species not given); assay: as above; conditions: plasma RT of patient code 1030 (K70R, L210S); 5 fg/well
[9] = tested on: recombinant HIV 1 RT M41L/T69S-SS/L210W/R211K/L214F/T215Y; conditions: Recombinant RT control T69S→SS; compared to wild type control RT
Excerpt: (§5) Regrettably an efficient phosphorolysis reaction is promptly reflected by a decrease in polymerization velocity and as a consequence also a decrease in detection sensitivity. Therfore this assay require more RT activity, compared to the corresponding assay for the NNRTIs.

[10] = target: recombinant HIV 1 RT T215Y (Human immunodeficiency virus type 1 group M subtype B, UniProt P04585, T802Y); assay: RT inhibition assay for dT analogues (Chain-termination reaction mixture)
[11] = target: T3, recombinant HIV 1 RT wild type BH10 (Human immunodeficiency virus type 1 group M subtype B, UniProt P03366); assay: as above; conditions: for fold increase of IC50: Recombinant RT control wild type RT (Table 4)
[12] = target: recombinant HIV 1 RT M41L/T69S-SS/L210W/R211K/L214F/T215Y (Human immunodeficiency virus type 1 group M subtype B, UniProt P04585, INS655SS/L797W/L801F/M628L/R798K/T656S/T802Y); assay: biochemical
Excerpt: as §5

[13] = target: recombinant HIV 1 RT wild type HxB2 (Human immunodeficiency virus type 1 group M subtype B, UniProt P04585); assay: RT inhibition assay for dT analogues (Chain-termination reaction mixture)
Excerpt: as §5

[14] = tested on: HIV 1 virus with the corresponding RT modification; parameters: key: RS = the mutations gives re-sensitation of resistant virus; S = sensitive; L = Low level resistance; I = Intermediate resistance; H = High level resistance; conditions: phenotype data from literature, cited from earlier work
[15] = tested on: HIV 1 virus with the corresponding RT modification; parameters: key: S = sensitive; L = Low level resistance (2–10 times increase in inhibitory dose); I = Intermediate resistance (10–100 times increase); H = High level resistance (>100 times increase); conditions: dT analogues, phenotype data from literature, cited from earlier work
[16] = target: recombinant HIV 1 RT L100I (Human immunodeficiency virus type 1 group M subtype B, UniProt P03366, L699I); assay: RT inhibition assay for non-nucleoside inhibitors (modified HS Lenti RT assay, RT Reaction mixture); type: biochemical; conditions: 1.7 fg/well, 19 hours, read-out: IC50 of indicated inhibitor in RT assay
Excerpt: (§1) As template for the mutations was used the pETRT expression vector, which was constructed from the BH10 isolate.

[17] = target: recombinant HIV 1 RT K103N (Human immunodeficiency virus type 1 group M subtype B, UniProt P03366, K702N); assay: as above; type: biochemical; conditions: 1.7 fg/well, 19 hours, read-out: IC50 of indicated inhibitor in RT assay
Excerpt: as §1

[18] = target: recombinant HIV 1 RT L100I/K103N (Human immunodeficiency virus type 1 group M subtype B, UniProt P03366, K702N/L699I); assay: as above; type: biochemical; conditions: 1.7 fg/well, 19 hours, read-out: IC50 of indicated inhibitor in RT assay
Excerpt: as §1

[19] = target: T3, recombinant HIV 1 RT wild type BH10; assay: as above; type: biochemical; conditions: 1.7 fg/well, 19 hours, read-out: IC50 of indicated inhibitor in RT assay
Excerpt: as §1

[20] = target: T2, HIV RT recovered from patient plasma; assay: Susceptibility to NNRTIs using plasma derived RTs; type: biochemical, HIV-1; conditions: 1.7 fg/well
Excerpt: Place them in a Nalgene box.
Suck the gels dry after each wash. […] Refit the upper part of the device.

[21] = IC50, plasma RT of patient code 48
[22] = IC50, plasma RT of patient code 160
[23] = IC50, plasma RT of patient code 181
[24] = IC50, plasma RT of patient code 662
[25] = IC50, plasma RT of patient code 807
[26] = IC50, plasma RT of patient code 3507
[27] = virus with M41L/T69S-SS/L210W/R211K/L214F/T215Y

## O=C1Nc2ccc(Cl)cc2C(C#CC2CC2)(C(F)(F)F)O1 (single isomer, unassigned; (-)) [Efavirienz, (−)6-chloro-4-cyclopropylethynyl-4-trifluoromethyl-1,4-dihydro-2H-3,1-benzoxazin-2-one]
[1]; virus with K103N
  Sensitivity of the corresponding virus: H (H = High level resistance (>100 times increase))
[1]; virus with L100I/K103N
  Sensitivity of the corresponding virus: H (H = High level resistance (>100 times increase))
[1]; virus with L100I
  Sensitivity of the corresponding virus: I (I = Intermediate resistance (10–100 times increase))
[1]; wild type BH10, NNRTIs
  Sensitivity of the corresponding virus: S
[1]; wild type HxB2, NNRTIs
  Sensitivity of the corresponding virus: S

## Cc1cn(C2CC(N=[N+]=[N-])C(COP(=O)(O)OP(=O)(O)OP(=O)(O)O)O2)c(=O)[nH]c1=O (stereo not shown) [AZT-TP, 3′-azido-2′,3′-deoxythymidine triphosphate]
[2]; RT amount 2 fg/well
  pIC50: 6.89
[2]; RT amount 162 fg/well
  pIC50: 6.66
[3]; patient code 48
  fold increase of IC50: 2.9 fold
[3]; patient code 160
  fold increase of IC50: 1.7 fold
[3]; patient code 181
  fold increase of IC50: 3.1 fold
[3]; patient code 393
  fold increase of IC50: 20 fold
[3]; patient code 622
  fold increase of IC50: 1.4 fold
[3]; patient code 656
  fold increase of IC50: 7.8 fold
[3]; patient code 662
  fold increase of IC50: 3.1 fold
[3]; patient code 807
  fold increase of IC50: 3.1 fold
[3]; patient code 1030
  fold increase of IC50: 20 fold
[3]; patient code 1144
  fold increase of IC50: 3.5 fold
[3]; patient code 1320
  fold increase of IC50: 8.3 fold
[3]; patient code 2098
  fold increase of IC50: 2.2 fold
[3]; patient code 3507
  fold increase of IC50: 0.8 fold
[4]
  pIC50: 6.46
[5]
  pIC50: 6.64
[6]
  pIC50: 5.90
[7]; [21]
  pIC50: 6.33
[7]; [22]
  pIC50: 6.57
[7]; [23]
  pIC50: 6.30
[7]; [24]
  pIC50: 6.30
[7]; [25]
  pIC50: 6.30
[7]; [26]
  pIC50: 6.89
[8]
  pIC50: 5.49
[9]
  fold increase of IC50: 25 fold
[10]
  pIC50: 6.16
[11]
  pIC50: 6.80
  fold increase of IC50: 1.0 fold
[12]
  pIC50: 5.40
[13]
  pIC50: 6.72

## Cc1cn([C@H]2C[C@H](N=[N+]=[N-])[C@@H](CO)O2)c(=O)[nH]c1=O [AZT]
[14]; [27]
  Sensitivity of the corrsponding virus: H
[14]; virus with T215Y
  Sensitivity of the corrsponding virus: I
[15]; wild type HXB2
  Sensitivity of the corrsponding virus: S
[15]; wildtype BH 10
  Sensitivity of the corrsponding virus: S

## CC(C)Nc1cccnc1N1CCN(C(=O)c2cc3cc(NS(C)(=O)=O)ccc3[nH]2)CC1 [Delaviridine, 1-(5-methanesulphonamido-1H-indol-2-yl-carbonyl)-4-[3-(1-methylethyl-amino)pyridinyl]piperazine monomethane sulphonate]
[16]
  pIC50: 5.02
[17]
  pIC50: 5.52
[18]
  pIC50: < 4.00
[19]
  pIC50: 6.30
[20]; IC50, plasma RT of patient code 1177
  pIC50: 5.34
[20]; IC50, plasma RT of patient code 1412
  pIC50: 5.44
[20]; IC50, plasma RT of patient code 1424
  pIC50: 5.09
[20]; IC50, plasma RT of patient code 1572
  pIC50: 5.02
[20]; IC50, plasma RT of patient code 1639
  pIC50: 4.90
[20]; IC50, plasma RT of patient code 1885
  pIC50: 5.05
[20]; plasma RT of patient code 3980 (V179T/A/I)
  pIC50: 5.12

## Cc1ccnc2c1NC(=O)c1cccnc1N2C1CC1 [Nevirapin, 11-cyclopropyl-5,11-dihydro-4-methyl-6H-dipyrido[3,2-b:2′,3′-f][1,4]diazepin-6-one]
[1]; virus with K103N
  Sensitivity of the corresponding virus: H (H = High level resistance (>100 times increase))
[1]; virus with L100I/K103N
  Sensitivity of the corresponding virus: H (H = High level resistance (>100 times increase))
[1]; virus with L100I
  Sensitivity of the corresponding virus: L (L = Low level resistance (2–10 times increase in inhibitory dose))
[1]; wild type BH10, NNRTIs
  Sensitivity of the corresponding virus: S
[1]; wild type HxB2, NNRTIs
  Sensitivity of the corresponding virus: S

## Cc1cn([C@H]2C=C[C@@H](COP(=O)(O)OP(=O)(O)OP(=O)(O)O)O2)c(=O)[nH]c1=O [d4T-TP, 2′,3′-didehydro-3′-deoxythymidine triphosphate]
[3]; patient code 48
  fold increase of IC50: 2.6 fold
[3]; patient code 160
  fold increase of IC50: 1.3 fold
[3]; patient code 181
  fold increase of IC50: 1.5 fold
[3]; patient code 393
  fold increase of IC50: 12.7 fold
[3]; patient code 622
  fold increase of IC50: 0.8 fold
[3]; patient code 656
  fold increase of IC50: 5.2 fold
[3]; patient code 662
  fold increase of IC50: 2.0 fold
[3]; patient code 807
  fold increase of IC50: 2.7 fold
[3]; patient code 1030
  fold increase of IC50: 33 fold
[3]; patient code 1320
  fold increase of IC50: 19.6 fold
[3]; patient code 2098
  fold increase of IC50: 1.5 fold
[3]; patient code 3507
  fold increase of IC50: 0.6 fold
[4]
  pIC50: 7.32
[5]
  pIC50: 7.55
[6]
  pIC50: 6.77
[7]; [21]
  pIC50: 7.07
[7]; [22]
  pIC50: 7.37
[7]; [23]
  pIC50: 7.31
[7]; [24]
  pIC50: 7.19
[7]; [25]
  pIC50: 7.15
[7]; [26]
  pIC50: 7.70
[8]
  pIC50: 5.96
[9]
  fold increase of IC50: 15 fold
[10]
  pIC50: 6.82
[11]
  pIC50: 7.48
  fold increase of IC50: 1.0 fold
[12]
  pIC50: 6.31
[13]
  pIC50: 7.30

## Cc1cn([C@H]2C=C[C@@H](CO)O2)c(=O)[nH]c1=O [d4T]
[14]; [27]
  Sensitivity of the corrsponding virus: H
[14]; virus with T215Y
  Sensitivity of the corrsponding virus: L
[15]; wild type HXB2
  Sensitivity of the corrsponding virus: S
[15]; wildtype BH 10
  Sensitivity of the corrsponding virus: S
